Tests used:
Type in all cases: physicochemical
[1] = Effect of [ligand]/[111In3+] on the percent complexation
Experimental: (§1) A polyazamacrocyclic ligand ((L)-p-NO2-Bz-PCTA; (D)-p-NO2-Bz-PCTA; (L)-p-NCS-Bz-PCTA; (±)-p-NO2-Bz-DOTA, (±)-NPCTA, (±)-OXO and (L)-p-NO2-Bz-OXO) was combined with a metal ion (^90Y^3+, ^111In^3+, ^177Lu^3+) at room temperature in buffer at a molar ratio of the ligand to the metal ion of 100:1 for kinetic studies, 200:1 for stability studies or at values ranging from 2:1 to 200:1 for the molar ratio studies.
(§2) Complexation studies involving ^90Y^3+ and ^111In^3+ were conducted with 50-100 mM sodium acetate buffer, pH 5.0-7.0, while complexation studies involving ^177Lu^3+ were performed with 50 mM-100 mM sodium acetate buffer, pH 4-5.
(§3) 1 μL samples were taken at 10 minute intervals for kinetic studies, after 60 minutes in experiments studying the effect of the value of [ligand]/[metal ion] on the % complexation of the ligand, and at spaced intervals of 1-3 days for experiments studying the stability of complexes formed using the ligand of the present invention. […] The silica gel paper is cut in half and each half is measured in a gamma well counter. […] Each result shown in FIGS. 4-9 is the average of three separate trials.

[2] = Kinetics of complexation of polyazamacrocyclic ligand with 177Lu3+; details: ^177Lu^3+; for percent complexation of metal ion (in words) / time after which the maximum percent of complexation was observed: ligand:metal 100:1; for percent complexation after 10 minutes: ligand:metal 100:1, 10 minutes; for initial rate / kinetics of complexation (in words): ligand:metal 100:1, room temperature
Experimental: as §1, §2, §3

[3] = Kinetics of complexation of polyazamacrocyclic ligand with 111In3+; details: ^111In^3+; for initial rate / kinetics of complexation (in words): ligand:metal 100:1, room temperature
Experimental: as §1, §2, §3

[4] = Kinetics of complexation of polyazamacrocyclic ligand with 90Y3+; details: ^90Y^3+; for percent complexation of metal ion (in words): ligand:metal 100:1; for initial rate / kinetics of complexation (in words): ligand:metal 100:1, room temperature
Experimental: as §1, §2, §3

[5] = Effect of [ligand]/[90Y3+] on the percent complexation
Experimental: as §1, §2, §3

[6] = Effect of [ligand]/[177Lu3+] on the percent complexation
Experimental: as §1, §2, §3

[7] = molar ratio of ligand/^111In^3+ of 5:1, after 60 minutes

percent complexation [1, 7]	percent complexation of metal ion (in words) [2]	percent complexation after 10 minutes [2]	percent complexation of metal ion (in words) [4]	SMILES	time after which the maximum percent of complexation was observed [2]	initial rate / kinetics of complexation (in words) [2]	initial rate / kinetics of complexation (in words) [3]	initial rate / kinetics of complexation (in words) [4]	further results
~94%	highest	~95%	highest	O=C(O)CN1CCN(CC(=O)O)CCN(CC(=O)O)C(Cc2ccc([N+](=O)[O-])cc2)CN(CC(=O)O)CC1 (racemic) [(±)-p-NO2-Bz-DOTA, 2,2′,2″,2′″-(2-(4-nitrobenzyl)-1,4,7,10-tetraazacyclododecane-1,4,7,10-tetrayl)tetraacetic acid]	40 min				percent complexation ([1]; molar ratio of ligand/^111In^3+ of greater than 20:1, after 60 minutes): ≤ 95%; maximum values of complexation after 40 minutes ([3]; ligand:metal 100:1, after 40 minutes): ~89%
	highest		highest	O=C(O)CN1CCOCCN(CC(=O)O)[C@@H](Cc2ccc([N+](=O)[O-])cc2)CN(CC(=O)O)CC1 [(L)-p-NO2-Bz-OXO, (S)-2,2′,2″-(5-(4-nitrobenzyl)-1-oxa-4,7,10-triazacyclododecane-4,7,10-triyl)triacetic acid]		fastest	fastest		
	highest	~95%	highest	O=C(O)CN1CCOCCN(CC(=O)O)CCN(CC(=O)O)CC1 (racemic) [(±)-OXO, 2,2′,2″-(1-oxa-4,7,10-triazacyclododecane-4,7,10-triyl)triacetic acid]			fastest		
~76%				COc1ccc([N+](=O)[O-])cc1C(C(=O)O)N1CCN(CC(=O)O)Cc2cccc(n2)CN(CC(=O)O)CC1 (racemic) [(±)-NPCTA, 2,2′-(6-(carboxy(2-methoxy-5-nitrophenyl)methyl)-3,6,9,15-tetraazabicyclo[9.3.1]pentadeca-1(15),11,13-triene-3,9-diyl)diacetic acid]	50 min	relatively slower	relatively slower	relatively slower	percent complexation ([6]; molar ratio of ligand/^177Lu^3+ of greater than 20:1, after 60 minutes): < 95%; percent complexation ([5]; molar ratio of ligand/^90Y^3+ of greater than 20:1, after 60 minutes): < 90%

SMILES	percent complexation [1, 7]	percent complexation of metal ion (in words) [2]	percent complexation after 10 minutes [2]	percent complexation of metal ion (in words) [4]	time after which the maximum percent of complexation was observed [2]	initial rate / kinetics of complexation (in words) [2]	initial rate / kinetics of complexation (in words) [3]	initial rate / kinetics of complexation (in words) [4]	further results
O=C(O)CN1CCN(CC(=O)O)C[C@@H](Cc2ccc([N+](=O)[O-])cc2)N(CC(=O)O)Cc2cccc(n2)C1 [(D)-p-NO2-Bz-PCTA, 2,2′,2″-((4R)-4-(4-nitrobenzyl)-3,6,9,15-tetraazabicyclo[9.3.1]pentadeca-1(15),11,13-triene-3,6,9-triyl)triacetic acid]			~91%						percent complexation ([1]; molar ratio of ligand/^111In^3+ of 10:1, after 60 minutes): ~95%; percent complexation ([5]; molar ratio of ligand/^90Y^3+ of 10:1, after 60 minutes): ~95%
O=C(O)CN1CCN(CC(=O)O)C[C@H](Cc2ccc([N+](=O)[O-])cc2)N(CC(=O)O)Cc2cccc(n2)C1 [(L)-p-NO2-Bz-PCTA, 2,2′,2″-((4S)-4-(4-nitrobenzyl)-3,6,9,15-tetraazabicyclo[9.3.1]pentadeca-1(15),11,13-triene-3,6,9-triyl)triacetic acid]		highest		highest		fastest		fastest	percent complexation ([6]; molar ratio of ligand/^177Lu^3+ of 5:1, after 60 minutes): ~95%; percent complexation after 10 minutes ([3]; ligand:metal 100:1, 10 minutes): ~95%; percent complexation after 10 minutes ([4]; ligand:metal 100:1, 10 minutes): 95%

From US8518715B2, “Bifunctional polyazamacrocyclic chelating agents” (Nordion (Canada) Inc., priority 2006, dated 2013)
